Assay [1] has as its system S. aureus 76(Meth^R)(lac^+). Put plainly: In vitro MIC, agar dilution. The settings on record: Staphylococcus aureus, read-out: minimum inhibitory concentration (MIC). Type of assay: cell-based. A digest of the protocol:
(§1)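 Growth inhibition was scored after 16-20 h at 35-36 °C on Mueller-Hinton agar carrying serial two-fold drug concentrations (128 to ≤0.25 μg/mL). Inocula of ~10^4 cfu per spot came from 4-6 h broth cultures.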
(Agar dilution tests growth on a series of plates holding different concentrations.)

The subject of assay [2] is E. faecium ATCC 35667. Kind of assay: In vitro MIC, agar dilution. The format is cell-based. Particulars: Enterococcus faecium, ATCC35667, read-out: minimum inhibitory concentration (MIC). The essentials: as §1
Assay [3] has as its system E. faecalis ATCC 29212. Put plainly: In vitro MIC, agar dilution. Type of assay: cell-based. The settings on record: Enterococcus faecalis, ATCC29212, read-out: minimum inhibitory concentration (MIC). The essentials:
as §1

Assay [4] has as its system S. aureus Spain #356(Meth^R). Put plainly: In vitro MIC, agar dilution. The format is cell-based. Particulars: Staphylococcus aureus, read-out: minimum inhibitory concentration (MIC). A digest of the protocol: as §1
Assay [5] deals with S. aureus ATCC 29213. Kind of assay: In vitro MIC, agar dilution. The settings on record: Staphylococcus aureus, ATCC29213, read-out: minimum inhibitory concentration (MIC). Type of assay: cell-based. The essentials:
as §1

The test system of assay [6] is S. aureus ATCC 33593(Meth^R). Kind of assay: In vitro MIC, agar dilution. The format is cell-based. The settings on record: Staphylococcus aureus, ATCC33593, read-out: minimum inhibitory concentration (MIC). The essentials:
as §1

For assay [7], the system named is P. aeruginosa ATCC 27853. Put plainly: In vitro MIC, agar dilution. The format is cell-based. Particulars: Pseudomonas aeruginosa, ATCC27853, read-out: minimum inhibitory concentration (MIC). A digest of the protocol:
as §1

Assay [8] relates to MRSA strains. The settings on record: in words, reported in background; cited from earlier work.

Values after ≈ are worked out from the molar mass of the structure shown.

For the compound `C[C@@H](O)[C@H]1C(=O)N2C(C(=O)O)=C(SCCN=CN)C[C@H]12` [Imipenem, imipenem, reference compound], the MIC was 32 µg/mL (≈ 107 µM) in assay [1]; 4 µg/mL (≈ 13.4 µM) in assay [2]; no more than 0.25 µg/mL in assay [3]; 32 µg/mL (≈ 107 µM) in assay [4]; no more than 0.25 µg/mL in assay [5]; 32 µg/mL (≈ 107 µM) in assay [6]. Moreover, the MIC in assay [7] is 1 µg/mL (≈ 3.34 µM). In addition, the “activity against MRSA strains” value in assay [8] is on record as “active against a few MRSA strains”.

Values taken from patent US6087355A, “Cephalosporin antibiotics” (Microcide Pharmaceuticals, Inc., priority 1996, dated 2000).
